Assay results reported in US8859546B2, “Picolinamide inhibitors of kinases” (AbbVie Inc., priority 2011, dated 2014).

Target: T1, ALK (Homo sapiens, UniProt Q9UM73)
T1 construct: purchased Millipore
Assay: ALK kinase assay (HTRF), apparent Ki
Format: biochemical
Settings: apparent Ki from IC50 by Cheng-Prusoff; ALK (Millipore), 50 μM ATP; read-out: HTRF_ALK Human-Ki
Method: The following procedure is used to determine ALK Activity.
ALK kinase assays were conducted with the indicated final concentrations unless otherwise specified. In 384 well black plates (Axygen), 8 μl of compound (2% DMSO) was incubated with 8 μl Lck-peptide substrate (0.5 μM, biotin-Ahx-GAEEEIYAAFFA-COOH) and 8 μl of a mixture of ALK (3 nM, Millipore) and ATP (50 μM) in reaction buffer (50 mM Hepes, pH 7.4; 10 mM MgCl2; 2 mM MnCl2; 0.1 mM sodium orthovanadate; 0.01% BSA and 1 mM DTT (added fresh before assay) for 1 h at room temperature. Reactions were then quenched by the addition of 30 μl quench solution (streptavidin-allophycocyanin and Europium-cryptate PT66 monoclonal antibody in 40 mM Hepes, pH 7.4; 480 mM KF; 66 mM EDTA; 0.01% Tween-20; and 0.1% BSA) at room temperature. Plates were read 1 h after quenching on an Envision Multilaber Reader and IC50 values were calculated using a sigmoidal fit of the concentration/inhibition response curves. These values were converted to apparent Ki values using the Cheng-Prusoff relationship.
Alternatively, 4 nM ALK (Millipore) and 50 μM ATP were pre-incubated for 30 min at room temperate in 384 well plates (Corning 3676) in 2.5× reaction buffer (125 nM SEB from Cisbio Bioassays, 12.5 mM MgCl2, 5 mM MnCl2, and 2.5 mM DTT). Reactions were initiated by the addition of 4 μl ALK-ATP mixture to 2 μl compounds (2% DMSO) and 4 μl TK-substrate biotin (Cisbio Bioassays). After incubation for 1 h at room temperature, reactions were quenched in 10 μl stop buffer (Cisbio detection buffer containing Streptavididn-XL665 and Eu-Cryptate PT66 monoclonal antibody). Plates were read 1 h after quenching on an Envision Multilaber Reader and IC50 values were calculated using a sigmoidal fit of the concentration/inhibition response curves. These values were converted to apparent Ki values using the Cheng-Prusoff relationship. Results are shown in Table 1 A correlates to an Ki=<100 nM, B correlates to an Ki between 100 nM and 1 μM, C correlates to an Ki=>1 μM.

T1 sequence (Q9UM73 19-1620): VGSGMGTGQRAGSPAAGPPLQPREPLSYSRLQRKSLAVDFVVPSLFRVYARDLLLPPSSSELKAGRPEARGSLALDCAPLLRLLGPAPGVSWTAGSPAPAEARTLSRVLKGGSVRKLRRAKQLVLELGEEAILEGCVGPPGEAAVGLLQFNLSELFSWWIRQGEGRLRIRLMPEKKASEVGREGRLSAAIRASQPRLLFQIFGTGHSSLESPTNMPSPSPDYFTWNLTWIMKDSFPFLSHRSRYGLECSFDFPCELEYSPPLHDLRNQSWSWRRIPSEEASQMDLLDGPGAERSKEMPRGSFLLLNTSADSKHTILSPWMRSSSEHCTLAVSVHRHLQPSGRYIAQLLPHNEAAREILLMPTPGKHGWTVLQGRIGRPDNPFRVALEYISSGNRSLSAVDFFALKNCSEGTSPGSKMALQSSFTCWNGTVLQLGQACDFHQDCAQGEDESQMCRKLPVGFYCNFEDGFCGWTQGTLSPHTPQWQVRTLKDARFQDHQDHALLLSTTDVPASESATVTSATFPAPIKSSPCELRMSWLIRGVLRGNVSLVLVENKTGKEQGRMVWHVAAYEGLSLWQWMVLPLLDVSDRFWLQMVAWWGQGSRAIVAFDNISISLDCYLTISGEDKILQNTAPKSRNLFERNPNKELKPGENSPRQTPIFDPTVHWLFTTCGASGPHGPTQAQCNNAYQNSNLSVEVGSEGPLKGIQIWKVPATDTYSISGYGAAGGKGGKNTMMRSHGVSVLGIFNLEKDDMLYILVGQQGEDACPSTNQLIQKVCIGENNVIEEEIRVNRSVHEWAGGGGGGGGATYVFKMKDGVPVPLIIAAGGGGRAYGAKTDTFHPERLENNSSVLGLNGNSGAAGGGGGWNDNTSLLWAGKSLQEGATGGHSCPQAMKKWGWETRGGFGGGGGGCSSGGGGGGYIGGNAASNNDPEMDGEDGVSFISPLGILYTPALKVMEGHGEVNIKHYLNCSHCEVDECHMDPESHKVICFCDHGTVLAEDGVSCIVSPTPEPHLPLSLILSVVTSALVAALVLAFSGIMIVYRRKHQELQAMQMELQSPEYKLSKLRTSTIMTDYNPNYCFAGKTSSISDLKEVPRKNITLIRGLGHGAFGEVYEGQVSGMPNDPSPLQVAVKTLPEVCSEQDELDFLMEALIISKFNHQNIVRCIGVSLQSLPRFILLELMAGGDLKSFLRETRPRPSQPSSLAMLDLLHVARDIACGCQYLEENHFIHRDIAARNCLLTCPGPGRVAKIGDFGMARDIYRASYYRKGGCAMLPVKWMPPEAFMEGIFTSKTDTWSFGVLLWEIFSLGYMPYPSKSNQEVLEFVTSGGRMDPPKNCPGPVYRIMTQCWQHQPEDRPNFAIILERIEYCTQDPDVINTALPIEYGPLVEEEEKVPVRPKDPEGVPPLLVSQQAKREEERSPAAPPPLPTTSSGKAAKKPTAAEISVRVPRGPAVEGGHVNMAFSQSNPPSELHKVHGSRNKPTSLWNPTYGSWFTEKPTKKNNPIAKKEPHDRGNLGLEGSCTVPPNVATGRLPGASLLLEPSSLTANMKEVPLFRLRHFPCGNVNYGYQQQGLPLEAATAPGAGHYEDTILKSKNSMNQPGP

Compound | Ki [µM]
CN1CCN(c2ccc(Nc3cc(-c4cccc(Cl)c4)cnc3C(N)=O)cc2)CC1 [Example 52, 5-(3-chlorophenyl)-3-{[4-(4-methylpiperazin-1-yl)phenyl]amino}pyridine-2-carboxamide] | > 1
CC(c1cccc(F)c1)c1cnc(C(N)=O)c(Nc2ccc(N3CCN(C)CC3)c(Cl)c2)c1 (centres unmarked) [Example 36, 3-{[3-chloro-4-(4-methylpiperazin-1-yl)phenyl]amino}-5-[1-(3-fluorophenyl)ethyl]pyridine-2-carboxamide] | 0.1 to 1
CN1CCN(c2ccc(Nc3cc(-c4cccnc4)cnc3C(N)=O)cc2)CC1 [Example 60, 5-{[4-(4-methylpiperazin-1-yl)phenyl]amino}-3,3′-bipyridine-6-carboxamide] | > 1
CN1CCN(c2ccc(Nc3cc(Cc4ccc5ccccc5c4)cnc3C(N)=O)cc2)CC1 [Example 17, 3-{[4-(4-methylpiperazin-1-yl)phenyl]amino}-5-(2-naphthylmethyl)pyridine-2-carboxamide] | > 1
NC(=O)c1ncc(Cc2c(Cl)cccc2Cl)cc1Nc1ccc(N2CCNCC2)cc1 [Example 39, 5-(2,6-dichlorobenzyl)-3-{[4-(piperazin-1-yl)phenyl]amino}pyridine-2-carboxamide] | < 0.1
CN1CCN(c2ccc(Nc3cc(-c4cccc(NS(=O)(=O)c5ccn(C)n5)c4)cnc3C(N)=O)cc2)CC1 [Example 69, 3-{[4-(4-methylpiperazin-1-yl)phenyl]amino}-5-(3-{[(1-methyl-1H-pyrazol-3-yl)sulfonyl]amino}phenyl)pyridine-2-carboxamide] | 0.1 to 1
CN1CCN(c2ccc(Nc3cc(-c4ccccc4F)cnc3C(N)=O)cc2)CC1 [Example 50, 5-(2-fluorophenyl)-3-{[4-(4-methylpiperazin-1-yl)phenyl]amino}pyridine-2-carboxamide] | 0.1 to 1
CN1CCN(c2ccc(Nc3cc(-c4cn[nH]c4)cnc3C(N)=O)cc2)CC1 [Example 63, 3-{[4-(4-methylpiperazin-1-yl)phenyl]amino}-5-(1H-pyrazol-4-yl)pyridine-2-carboxamide] | > 1
CN1CCN(c2ccc(Nc3cc(-c4cccc(C(N)=O)c4)cnc3C(N)=O)cc2)CC1 [Example 53, 5-(3-carbamoylphenyl)-3-{[4-(4-methylpiperazin-1-yl)phenyl]amino}pyridine-2-carboxamide] | 0.1 to 1
CN1CCN(c2ccc(Nc3cc(-c4ccccc4Cl)cnc3C(N)=O)cc2)CC1 [Example 58, 5-(2-chlorophenyl)-3-{[4-(4-methylpiperazin-1-yl)phenyl]amino}pyridine-2-carboxamide] | 0.1 to 1
COc1cc(N2CCN(CCN3CCOCC3)CC2)ccc1Nc1cc(Cc2c(F)cccc2Cl)cnc1C(N)=O [Example 43, 5-(2-chloro-6-fluorobenzyl)-3-[(2-methoxy-4-{4-[2-(morpholin-4-yl)ethyl]piperazin-1-yl}phenyl)amino]pyridine-2-carboxamide] | 0.1 to 1
CN1CCN(c2ccc(Nc3cc(Cc4cc(F)ccc4Cl)cnc3C(N)=O)cc2Cl)CC1 [Example 40, 5-(2-chloro-5-fluorobenzyl)-3-{[3-chloro-4-(4-methylpiperazin-1-yl)phenyl]amino}pyridine-2-carboxamide] | 0.1 to 1
Cc1cc(N2CCN(C)CC2)ccc1Nc1cc(Cc2ccccc2)cnc1C(N)=O [Example 9, 5-benzyl-3-{[2-methyl-4-(4-methylpiperazin-1-yl)phenyl]amino}pyridine-2-carboxamide] | 0.1 to 1
CN1CCN(c2ccc(Nc3cc(-c4ccccc4C#N)cnc3C(N)=O)cc2)CC1 [Example 61, 5-(2-cyanophenyl)-3-{[4-(4-methylpiperazin-1-yl)phenyl]amino}pyridine-2-carboxamide] | > 1
CN1CCN(c2ccc(Nc3cc(-c4cccc(NS(=O)(=O)c5cccs5)c4)cnc3C(N)=O)cc2)CC1 [Example 68, 3-{[4-(4-methylpiperazin-1-yl)phenyl]amino}-5-{3-[(2-thienylsulfonyl)amino]phenyl}pyridine-2-carboxamide] | < 0.1
COc1ccc(Cc2cnc(C(N)=O)c(Nc3ccc(N4CCN(C)CC4)cc3)c2)cc1 [Example 16, 5-(4-methoxybenzyl)-3-{[4-(4-methylpiperazin-1-yl)phenyl]amino}pyridine-2-carboxamide] | 0.1 to 1
C=C(c1ccccc1)c1cnc(C(N)=O)c(Nc2ccc(N3CCN(C)CC3)cc2)c1 [Example 10, 3-{[4-(4-methylpiperazin-1-yl)phenyl]amino}-5-(1-phenylvinyl)pyridine-2-carboxamide] | 0.1 to 1
COc1cc(N2CCN(C)CC2)ccc1Nc1cc(Cc2c(F)cccc2Cl)cnc1C(N)=O [Example 46, 5-(2-chloro-6-fluorobenzyl)-3-{[2-methoxy-4-(4-methylpiperazin-1-yl)phenyl]amino}pyridine-2-carboxamide] | 0.1 to 1
COc1cc(N2CCN(C)CC2)ccc1Nc1cc(Cc2c(Cl)cccc2Cl)cnc1C(N)=O [Example 38, 5-(2,6-dichlorobenzyl)-3-{[2-methoxy-4-(4-methylpiperazin-1-yl)phenyl]amino}pyridine-2-carboxamide] | < 0.1
CN1CCN(c2ccc(Nc3cc(-c4cccc(NS(C)(=O)=O)c4)cnc3C(N)=O)cc2)CC1 [Example 54, 3-{[4-(4-methylpiperazin-1-yl)phenyl]amino}-5-{3-[(methylsulfonyl)amino]phenyl}pyridine-2-carboxamide] | < 0.1
CCN1CCN(c2ccc(Nc3cc(Cc4c(F)cccc4Cl)cnc3C(N)=O)c(OC)c2)CC1 [Example 47, 5-(2-chloro-6-fluorobenzyl)-3-{[4-(4-ethylpiperazin-1-yl)-2-methoxyphenyl]amino}pyridine-2-carboxamide] | < 0.1
COc1cc(N2CCN(CC(C)(C)O)CC2)ccc1Nc1cc(Cc2c(F)cccc2Cl)cnc1C(N)=O [Example 45, 5-(2-chloro-6-fluorobenzyl)-3-({4-[4-(2-hydroxy-2-methylpropyl)piperazin-1-yl]-2-methoxyphenyl}amino)pyridine-2-carboxamide] | 0.1 to 1

More lines, now with the values ahead:

Ki [µM] | Compound
0.1 to 1 | CN1CCN(c2ccc(Nc3cc(CC4CCCCC4)cnc3C(N)=O)cc2)CC1 [Example 5, 5-(cyclohexylmethyl)-3-{[4-(4-methylpiperazin-1-yl)phenyl]amino}pyridine-2-carboxamide]
< 0.1 | CN1CCN(c2ccc(Nc3cc(Cc4ccccc4F)cnc3C(N)=O)cc2)CC1 [Example 13, 5-(2-fluorobenzyl)-3-{[4-(4-methylpiperazin-1-yl)phenyl]amino}pyridine-2-carboxamide]
0.1 to 1 | CN1CCN(c2ccc(Nc3cc(Cc4ccc(F)c(F)c4)cnc3C(N)=O)cc2)CC1 [Example 19, 5-(3,4-difluorobenzyl)-3-{[4-(4-methylpiperazin-1-yl)phenyl]amino}pyridine-2-carboxamide]
> 1 | Cc1ccccc1Cc1cnc(C(N)=O)c(Nc2ccc(N3CCN(C)CC3)cc2)c1 [Example 27, 5-(2-methylbenzyl)-3-{[4-(4-methylpiperazin-1-yl)phenyl]amino}pyridine-2-carboxamide]
< 0.1 | CN1CCN(c2ccc(Nc3cc(Cc4c(Cl)cccc4Cl)cnc3C(N)=O)cc2)CC1 [Example 31, 5-(2,6-dichlorobenzyl)-3-{[4-(4-methylpiperazin-1-yl)phenyl]amino}pyridine-2-carboxamide]
0.1 to 1 | CN1CCN(c2ccc(Nc3cc(Cc4cccc(Cl)c4)cnc3C(N)=O)cc2)CC1 [Example 24, 5-(3-chlorobenzyl)-3-{[4-(4-methylpiperazin-1-yl)phenyl]amino}pyridine-2-carboxamide]
< 0.1 | CN1CCN(c2ccc(Nc3cc(Cc4cc(F)cc(F)c4)cnc3C(N)=O)cc2)CC1 [Example 18, 5-(3,5-difluorobenzyl)-3-{[4-(4-methylpiperazin-1-yl)phenyl]amino}pyridine-2-carboxamide]
> 1 | CN1CCN(c2ccc(Nc3cc(-c4cnn(C)c4)cnc3C(N)=O)cc2)CC1 [Example 64, 3-{[4-(4-methylpiperazin-1-yl)phenyl]amino}-5-(1-methyl-1H-pyrazol-4-yl)pyridine-2-carboxamide]
< 0.1 | CN1CCN(c2ccc(Nc3cc(Cc4cc(F)ccc4F)cnc3C(N)=O)cc2)CC1 [Example 21, 5-(2,5-difluorobenzyl)-3-{[4-(4-methylpiperazin-1-yl)phenyl]amino}pyridine-2-carboxamide]
0.1 to 1 | CN1CCN(c2ccc(Nc3cc(Cc4ccc(F)cc4)cnc3C(N)=O)cc2)CC1 [Example 12, 5-(4-fluorobenzyl)-3-{[4-(4-methylpiperazin-1-yl)phenyl]amino}pyridine-2-carboxamide]
